# Columns and labels:
# Format in all cases: functional
# [1] = Antibacterial activity against Bacillus proteus ATCC 13315 by micro broth dilution method
# Pseudomonas aeruginosa = test: Antibacterial activity against Pseudomonas aeruginosa ATCC 27853 by micro broth dilution method
# Escherichia coli [2] = test: Antibacterial activity against Escherichia coli DH52 by micro broth dilution method
# Shigella dysenteriae = test: Antibacterial activity against Shigella dysenteriae by micro broth dilution method
# Saccharomyces cerevisiae = test: Antifungal activity against Saccharomyces cerevisiae ATCC 9763 after 24 hrs by micro broth dilution method; conditions: ATCC 9763, 24 h
# Escherichia coli [3] = test: Antibacterial activity against Escherichia coli JM109 by micro broth dilution method
# Salmonella enterica = test: Antibacterial activity against Salmonella enterica ATCC 14028 by micro broth dilution method
# Bacillus spizizenii = test: Antibacterial activity against Bacillus subtilis ATCC 6633 by micro broth dilution method
# Candida albicans = test: Antifungal activity against Candida albicans ATCC 10231 after 24 hrs by micro broth dilution method; conditions: ATCC 10231, 24 h
# Staphylococcus aureus [4] = test: Antibacterial activity against methicillin-resistant Staphylococcus aureus N315 by micro broth dilution method
# Aspergillus flavus = test: Antifungal activity against Aspergillus flavus ATCC 204304 after 24 hrs by micro broth dilution method; conditions: ATCC 204304, 24 h
# Micrococcus luteus = test: Antibacterial activity against Micrococcus luteus ATCC 4698 by micro broth dilution method; conditions: NCTC 2665
# Cyberlindnera jadinii = test: Antifungal activity against Candida utilis ATCC 9950 after 24 hrs by micro broth dilution method; conditions: Williopsis jadinii, ATCC 9950, 24 h
# Staphylococcus aureus [5] = test: Antibacterial activity against Staphylococcus aureus ATCC 25923 by micro broth dilution method
# [6] = Antifungal activity against Candida mycoderma ATCC 9888 after 24 hrs by micro broth dilution method; conditions: Candida vini
compound,measurement,setting,value
CCCCCCCCCCn1c(CN2CCN(c3cc4c(cc3F)c(=O)c(C(=O)O)cn4CC)CC2)nc2ccccc21,MIC,[1],8 µg/mL
same,MIC,Pseudomonas aeruginosa,4 µg/mL
same,MIC,Escherichia coli [2],0.5 µg/mL
same,MIC,Shigella dysenteriae,8 µg/mL
same,MIC80,Saccharomyces cerevisiae,4 µg/mL
same,MIC,Escherichia coli [3],32 µg/mL
same,MIC,Salmonella enterica,8 µg/mL
same,MIC,Bacillus spizizenii,4 µg/mL
same,MIC80,Candida albicans,16 µg/mL
same,MIC,Staphylococcus aureus [4],8 µg/mL
same,MIC80,Aspergillus flavus,4 µg/mL
same,MIC,Micrococcus luteus,16 µg/mL
same,MIC80,Cyberlindnera jadinii,4 µg/mL
same,MIC,Staphylococcus aureus [5],32 µg/mL
same,MIC80,[6],8 µg/mL
CCCCCCn1c(CN2CCN(c3cc4c(cc3F)c(=O)c(C(=O)O)cn4C3CC3)CC2)nc2ccccc21,MIC,[1],16 µg/mL
same,MIC,Pseudomonas aeruginosa,16 µg/mL
same,MIC,Escherichia coli [2],16 µg/mL
same,MIC,Shigella dysenteriae,64 µg/mL
same,MIC80,Saccharomyces cerevisiae,128 µg/mL
same,MIC,Escherichia coli [3],64 µg/mL
same,MIC,Salmonella enterica,16 µg/mL
same,MIC,Bacillus spizizenii,16 µg/mL
same,MIC80,Candida albicans,16 µg/mL
same,MIC,Staphylococcus aureus [4],128 µg/mL
same,MIC80,Aspergillus flavus,128 µg/mL
same,MIC,Micrococcus luteus,32 µg/mL
same,MIC80,Cyberlindnera jadinii,32 µg/mL
same,MIC,Staphylococcus aureus [5],256 µg/mL
same,MIC80,[6],8 µg/mL
O=C(O)c1cn(C2CC2)c2cc(N3CCN(Cc4nc5ccc(F)cc5[nH]4)CC3)c(F)cc2c1=O,MIC,[1],1 µg/mL
same,MIC,Pseudomonas aeruginosa,2 µg/mL
same,MIC,Escherichia coli [2],1 µg/mL
same,MIC,Shigella dysenteriae,2 µg/mL
same,MIC80,Saccharomyces cerevisiae,0.5 µg/mL
same,MIC,Escherichia coli [3],4 µg/mL
same,MIC,Salmonella enterica,1 µg/mL
same,MIC,Bacillus spizizenii,0.5 µg/mL
same,MIC80,Candida albicans,8 µg/mL
same,MIC,Staphylococcus aureus [4],2 µg/mL
same,MIC80,Aspergillus flavus,1 µg/mL
same,MIC,Micrococcus luteus,2 µg/mL
same,MIC80,Cyberlindnera jadinii,1 µg/mL
same,MIC,Staphylococcus aureus [5],4 µg/mL
same,MIC80,[6],2 µg/mL
O=C(O)c1cn(C2CC2)c2cc(N3CCN(Cc4nc5ccccc5n4Cc4ccc([N+](=O)[O-])cc4)CC3)c(F)cc2c1=O,MIC,[1],8 µg/mL
same,MIC,Pseudomonas aeruginosa,4 µg/mL
same,MIC,Escherichia coli [2],16 µg/mL
same,MIC,Shigella dysenteriae,8 µg/mL
same,MIC80,Saccharomyces cerevisiae,1 µg/mL
same,MIC,Escherichia coli [3],8 µg/mL
same,MIC,Salmonella enterica,16 µg/mL
same,MIC,Bacillus spizizenii,4 µg/mL
same,MIC80,Candida albicans,2 µg/mL
same,MIC,Staphylococcus aureus [4],2 µg/mL
same,MIC80,Aspergillus flavus,1 µg/mL
same,MIC,Micrococcus luteus,8 µg/mL
same,MIC80,Cyberlindnera jadinii,2 µg/mL
same,MIC,Staphylococcus aureus [5],4 µg/mL
same,MIC80,[6],4 µg/mL
CCn1cc(C(=O)O)c(=O)c2cc(F)c(N3CCN(Cc4nc5ccc(Br)cc5[nH]4)CC3)cc21,MIC,[1],4 µg/mL
same,MIC,Pseudomonas aeruginosa,2 µg/mL
same,MIC,Escherichia coli [2],16 µg/mL
same,MIC,Shigella dysenteriae,16 µg/mL
same,MIC80,Saccharomyces cerevisiae,16 µg/mL
same,MIC,Escherichia coli [3],16 µg/mL
same,MIC,Salmonella enterica,8 µg/mL
same,MIC,Bacillus spizizenii,8 µg/mL
same,MIC80,Candida albicans,64 µg/mL
same,MIC,Staphylococcus aureus [4],32 µg/mL
same,MIC80,Aspergillus flavus,4 µg/mL
same,MIC,Micrococcus luteus,2 µg/mL
same,MIC80,Cyberlindnera jadinii,16 µg/mL
same,MIC,Staphylococcus aureus [5],64 µg/mL
same,MIC80,[6],32 µg/mL
O=C(O)c1cn(C2CC2)c2cc(N3CCN(CNc4nc5ccccc5[nH]4)CC3)c(F)cc2c1=O,MIC,[1],1 µg/mL
same,MIC,Pseudomonas aeruginosa,0.5 µg/mL
same,MIC,Escherichia coli [2],1 µg/mL
same,MIC,Shigella dysenteriae,0.25 µg/mL
same,MIC80,Saccharomyces cerevisiae,4 µg/mL
same,MIC,Escherichia coli [3],4 µg/mL
same,MIC,Salmonella enterica,1 µg/mL
same,MIC,Bacillus spizizenii,1 µg/mL
same,MIC80,Candida albicans,1 µg/mL
same,MIC,Staphylococcus aureus [4],0.25 µg/mL
same,MIC80,Aspergillus flavus,16 µg/mL
same,MIC,Micrococcus luteus,1 µg/mL
same,MIC80,Cyberlindnera jadinii,8 µg/mL
same,MIC,Staphylococcus aureus [5],1 µg/mL
same,MIC80,[6],0.5 µg/mL
O=C(O)c1cn(C2CC2)c2cc(N3CCNCC3)c(F)cc2c1=O [CIPROFLOXACIN],MIC,[1],2 µg/mL
same,MIC,Pseudomonas aeruginosa,1 µg/mL
same,MIC,Shigella dysenteriae,2 µg/mL
same,MIC,Salmonella enterica,1 µg/mL
same,MIC,Bacillus spizizenii,2 µg/mL
same,MIC,Staphylococcus aureus [4],2 µg/mL
same,MIC,Micrococcus luteus,2 µg/mL
same,MIC,Staphylococcus aureus [5],0.5 µg/mL
OC(Cn1cncn1)(Cn1cncn1)c1ccc(F)cc1F [FLUCONAZOLE],MIC80,Saccharomyces cerevisiae,16 µg/mL
same,MIC80,Candida albicans,1 µg/mL
same,MIC80,Aspergillus flavus,256 µg/mL
same,MIC80,Cyberlindnera jadinii,8 µg/mL
same,MIC80,[6],4 µg/mL
NC1CCN(c2c(F)cc3c(=O)c(C(=O)O)cn(C4CC4)c3c2Cl)C1 (stereo not drawn) [CLINAFLOXACIN],MIC,[1],0.5 µg/mL
same,MIC,Pseudomonas aeruginosa,0.5 µg/mL
same,MIC,Escherichia coli [2],0.5 µg/mL
same,MIC,Shigella dysenteriae,0.5 µg/mL
same,MIC,Escherichia coli [3],0.5 µg/mL
same,MIC,Salmonella enterica,0.25 µg/mL
same,MIC,Bacillus spizizenii,0.5 µg/mL
same,MIC,Staphylococcus aureus [4],1 µg/mL
same,MIC,Micrococcus luteus,0.5 µg/mL
same,MIC,Staphylococcus aureus [5],0.5 µg/mL
